The assay deals with cellulose fungal decay. Kind of assay: Inground testing of cement-treated pulp sheets, subjective visual rating for deterioration (biodurability). The settings on record: for biological protection: summary statement in Example 2. The arrangement: species or system fungi. The protocol: Samples for testing were prepared by obtaining unbleached mixed conifer kraft pulp sheets produced in an interior British Columbia mill. […] Solutions of various biocides were made up so that the desired ultimate concentration of active material would be obtained by spraying each sample portion of pulp sheet with about 1 g of the biocidal solution per gram of pulp. […] Subsequently the treated sheets were reslurried in water having a pH ˜12 obtained from a cement board manufacturing facility and refined to a Canadian Standard Freeness (CSF) level of 450 mL. All refining was done in a pilot scale Model 202 Claflin refiner (available from Bolton-Emerson, Inc., Lawrence, Mass.). The treated and refined pulp was dewatered by centrifuging to a consistency of about 30% and then pin fluffed to ensure uniformity.
Treatments included copper sulfate at concentrations of 0.1, 0.3, and 0.5% Cu w/w based on dry pulp; zinc sulfate at concentrations of 0.1%, 0.3%, and 0.6% Zn; 0.2% propiconazole emulsion; didecyldimethylammonium chloride (DDAC) 0.2%, 0.5%; and 1.0%, and 1.0% DDAB. Treated fibers were also made using 1.0% DDAC with 0.05%, 0.10%, and 0.2% Cu added as copper sulfate. All concentrations are on a weight/weight basis.
Samples of 30 g of the treated pulps were reslurried in water and formed into sheets in an 8×8 inch (203×203 mm) sheet. The sheets were pressed to remove excess moisture then air dried. Each sheet was then cut in half and dipped for 30 seconds in a slurry of one part Portland cement in three parts by weight water. The coated and impregnated sheets were removed and drained, allowed to cure for two days wet, and then air dried. Each 4×8 inch ([…] mm) cement treated sheet was then enclosed in a 20 mesh stainless steel screen and half buried in the ground at a test site at Hilo, Hi. Samples were then removed after three month, six month, nine month, and twelve month periods for examination. Exposed sheets were assigned a subjective rating for deterioration based on visual observation (3=sound and 0=complete deterioration). The exposed sheets were also examined microscopically to determine the presence of fungal mycelium and cell wall deterioration. […] 1

Each structure is given as a SMILES string.

`O=S(=O)([O-])[O-].[Zn+2]` [Zinc compounds, zinc sulfate]: the biological protection entry is given as “poor”. Also, the decay protection entry (at any concentration tested) is given as “did not give effective decay protection”.

Consider `CCCCCCCCCC[N+](C)(C)CCCCCCCCCC.[Cl-]` [DDAC, didecyldimethylammonium chloride], for which the below ground protection result (DDAC at 0.5% or greater) is “effective below ground protection”.

For the molecule `O=S(=O)([O-])[O-].[Cu+2]` [copper, copper sulfate], the “reducing cellulose fungal decay” value (after the one year underground tests) is reported as “effective in reducing cellulose fungal decay”. The below ground protection result (copper at concentrations of 0.3% or greater) is listed as “effective below ground protection”. For `CCCCCCCCCC[N+](C)(C)CCCCCCCCCC.[Br-]` [DDAB, didecyldimethylammonium bromide], the below ground protection result (DDAB at 1% (lower concentrations not tested)) was “effective below ground protection”. With `CCCC1COC(Cn2cncn2)(c2ccc(Cl)cc2Cl)O1` (centres unmarked) [propiconazole], the biological protection entry was “poor”. Besides, under “at 0.2%”, the decay protection entry was “did not give effective decay protection”.
